Tests used:
[1] = system: breast cancer and non-cancer breast cell lines; assay: SRB antiproliferative comparison of breast cancer and non-cancer breast cell lines; type: cell-based, human; details: for antigrowth effect against cancer versus non-cancer cells (in words): three breast cancer lines vs 184B5 and MCF10A; for higher activity than the reference compounds cisplatin and CQ: breast cancer cell lines, GI50 comparison
Protocol: (§1) The human breast cancer cell lines MDA-MB468, MDA-MB231 and MCF-7 were purchased from ATCC and maintained in RPMI 1640 medium supplemented with 10% fetal bovine serum (Hyclone, Logan UT) and 2 mM L-glutamine. MCF10A and 184B5 immortalised breast cells were purchased from ATCC and maintained in mammary epithelial basal medium supplemented with an MEGM mammary epithelial singlequot kit (Cambrex). Cells were grown at 37 °C with 5% CO2, 95% air under the humidified conditions. Cell line authentication was carried out by Genetica DNA Laboratories (Burlington, NC) using a short tandem repeat profiling method (March 2015; July 2015; September 2016).
(§2) Cell cytotoxic effects were determined by a SRB-based protocol[2]^,[25].
(§3) The newly synthesised 4-piperazinylquinoline compounds (5–30) were evaluated for their antiproliferative effects using three breast cancer cell lines, for which the compounds were diluted to achieve seven different concentrations ranging from […]. Followed by 48 h incubation with the compound, cells were treated with sulforhodamine B (SRB) to measure their growth/viability (% of the untreated control) by spectrophotometer. The total cellular macromolecules levels known to accurately reflect by UV reading of SRB staining. […] The reference compounds CQ and cisplatin were included for the comparison.
(§4) We further assessed their antiproliferative effects on two non-cancer immortalised cell lines (184B5 and MCF10A). […] The antiproliferative effects of compound 23 on cancer cells are thus 7-fold (MDA-MB468 vs MCF10A) to 11-fold (MDA-MB231 vs 184B5) higher than matching non-cancer breast cells, which may indicate that compound 23 could potentially be safer than other compounds. Therefore, we examined it further to gain insights into its molecular mechanism of action.

[2] = system: 184B5; assay: SRB antiproliferative assay, 184B5 non-cancer breast cells; type: cell-based, human; details: Homo sapiens; SRB, 48 h incubation, 184B5 non-cancer immortalised breast cells; read-out: GI50 184B5
Protocol: as §1, §2, §3, §4

[3] = system: MDA-MB468; assay: SRB antiproliferative assay, MDA-MB468; type: cell-based, human; details: Homo sapiens, MDA-MB-468, 48 h, SRB, 48 h incubation, MDA-MB468 breast cancer cells; read-out: GI50 MDA-MB468
Protocol: as §1, §2, §3

[4] = system: MDA-MB231; assay: SRB antiproliferative assay, MDA-MB231; type: cell-based, human; details: Homo sapiens, MDA-MB-231, 48 h, SRB, 48 h incubation, MDA-MB231 triple-negative breast cancer cells; read-out: GI50 MDA-MB231
Protocol: as §1, §2, §3

[5] = system: MCF10A; assay: SRB antiproliferative assay, MCF10A non-cancer breast cells; type: cell-based, human; details: Homo sapiens, MCF-10A; SRB, 48 h incubation, MCF10A non-cancer immortalised breast cells; read-out: GI50 MCF10A
Protocol: as §1, §2, §3, §4

[6] = system: MCF7; assay: SRB antiproliferative assay, MCF7; type: cell-based, human; details: Homo sapiens; SRB, 48 h incubation, MCF7 breast cancer cells; read-out: GI50 MCF7
Protocol: as §1, §2, §3

SMILES | melting point [°C] | GI50 [3] [µM] | GI50 [4] [µM] | GI50 [6] [µM] | antigrowth effect against cancer versus non-cancer cells (in words) [1] | GI50 [2] [µM] | GI50 [5] [µM] | higher activity than the reference compounds cisplatin and CQ [1]
FC(F)(F)c1ccc2c(N3CCN(C(=S)NCCN4CCOCC4)CC3)ccnc2c1 [Compound 30, 4-(7-Trifluoromethyl-quinolin-4-yl)-piperazine-1-carbothioic acid (2-morpholin-4-yl-ethyl)-amide] | 134 to 135 | 14.2 ± 0.6 | 11.8 ± 0.9 | 6.2 ± 0.7 | much stronger activities against cancer than non-cancer cells | 17.4 ± 1 | 18.9 ± 1.3 | –
Cc1ccc(C)c(NC(=O)N2CCN(c3ccnc4cc(C(F)(F)F)ccc34)CC2)c1 [Compound 12, 4-(7-Trifluoromethyl-quinolin-4-yl)-piperazine-1-carboxylic acid (2,5-dimethyl-phenyl)-amide] | 108 to 109 | 21.7 ± 1 | 39.6 ± 2.1 | 22.5 ± 1.4 | higher activity against non-cancer cells than cancer cells | 7.6 ± 0.7 | 8.8 ± 0.9 | –
S=C(Nc1ccccc1)N1CCN(c2ccnc3cc(Cl)ccc23)CC1 [Compound 17, 4-(7-Chloro-quinolin-4-yl)-piperazine-1-carbothioic acid phenylamide] | 171 to 172 | 11.8 ± 0.6 | 4.8 ± 0.2 | 4.9 ± 0.3 | much stronger activities against cancer than non-cancer cells | 19.2 ± 1.6 | 13.9 ± 1.3 | –
O=C(Nc1c(Cl)cc(Cl)cc1Cl)N1CCN(c2ccnc3cc(C(F)(F)F)ccc23)CC1 [Compound 14, 4-(7-Trifluoromethyl-quinolin-4-yl)-piperazine-1-carboxylic acid (2,4,6-trichloro-phenyl)-amide] | 142 to 143 | 22.5 ± 0.2 | 21.1 ± 1.3 | 12.6 ± 1.2 | comparable against cancer and non-cancer cells | 33.2 ± 2.1 | 17.4 ± 0.5 | –
O=C(NC1CCCCC1)N1CCN(c2ccnc3cc(C(F)(F)F)ccc23)CC1 [Compound 16, 4-(7-Trifluoromethyl-quinolin-4-yl)-piperazine-1-carboxylic acid cyclohexylamide] | 132 to 133 | 12.7 ± 0.5 | 20.8 ± 2.3 | 4.9 ± 0.3 | comparable against cancer and non-cancer cells | 20.8 ± 1.4 | 20.9 ± 1 | –
FC(F)(F)c1ccc2c(N3CCN(C(=S)Nc4c(Cl)cc(Cl)cc4Cl)CC3)ccnc2c1 [Compound 28, 4-(7-Trifluoromethyl-quinolin-4-yl)-piperazine-1-carbothioic acid (2,4,6-trichloro-phenyl)-amide] | 112 to 114 | 23.4 ± 1.9 | 12.2 ± 0.9 | 11.8 ± 1 | higher activity against non-cancer cells than cancer cells | 5.5 ± 0.5 | 8.2 ± 0.7 | –
Cc1cccc(C)c1NC(=S)N1CCN(c2ccnc3cc(C(F)(F)F)ccc23)CC1 [Compound 25, 4-(7-Trifluoromethyl-quinolin-4-yl)-piperazine-1-carbothioic acid (2,6-dimethyl-phenyl)-amide] | 105 to 106 | 13.3 ± 0.3 | 22.2 ± 1.7 | 5.2 ± 0.5 | comparable against cancer and non-cancer cells | 21.4 ± 1.3 | 14.1 ± 1.5 | –
S=C(Nc1ccc(Cl)cc1)N1CCN(c2ccnc3cc(Cl)ccc23)CC1 [Compound 20, 4-(7-Chloro-quinolin-4-yl)-piperazine-1-carbothioic acid (4-chloro-phenyl)-amide] | 145 to 146 | 33.1 ± 1.5 | 22.6 ± 1.4 | 20.4 ± 0.9 | higher activity against non-cancer cells than cancer cells | 14.4 ± 0.6 | 8.8 ± 0.7 | –
O=C(Nc1c(Cl)cc(Cl)cc1Cl)N1CCN(c2ccnc3cc(Cl)ccc23)CC1 [Compound 8, 4-(7-Chloro-quinolin-4-yl)-piperazine-1-carboxylic acid (2,4,6-trichloro-phenyl)-amide] | 168 to 169 | 30.4 ± 2 | 29.1 ± 1.7 | 23.7 ± 2.4 | comparable against cancer and non-cancer cells | 22.3 ± 1.7 | 23.7 ± 1 | –
FC(F)(F)c1ccc2c(N3CCN(C(=S)Nc4ccccc4)CC3)ccnc2c1 [Compound 24, 4-(7-Trifluoromethyl-quinolin-4-yl)-piperazine-1-carbothioic acid phenylamide] | 187 to 188 | 14.1 ± 0.9 | 13.8 ± 0.8 | 7.5 ± 0.6 | much stronger activities against cancer than non-cancer cells | 24.4 ± 2 | 34.2 ± 1.3 | –
O=C(NC1CCCCC1)N1CCN(c2ccnc3cc(Cl)ccc23)CC1 [Compound 10, 4-(7-Chloro-quinolin-4-yl)-piperazine-1-carboxylic acid cyclohexylamide] | 112 to 113 | 10.9 ± 0.8 | 20.8 ± 1.3 | 6 ± 0.5 | comparable against cancer and non-cancer cells | 16.3 ± 1 | 15.7 ± 1.3 | –

Now those with a lower GI50 [3], led by results:

melting point [°C] | GI50 [3] [µM] | GI50 [4] [µM] | GI50 [6] [µM] | SMILES | antigrowth effect against cancer versus non-cancer cells (in words) [1] | GI50 [2] [µM] | GI50 [5] [µM] | higher activity than the reference compounds cisplatin and CQ [1]
112 to 113 | 7.8 ± 0.8 | 14.9 ± 1.1 | 4.9 ± 0.4 | FC(F)(F)c1ccc(NC(=S)N2CCN(c3ccnc4cc(Cl)ccc34)CC2)cc1 [Compound 19, 4-(7-Chloro-quinolin-4-yl)-piperazine-1-carbothioic acid (4-trifluoromethyl-phenyl)-amide] | higher activity against non-cancer cells than cancer cells | 3.7 ± 0.1 | 3.1 ± 0.1 | –
142 to 143 | 4.7 ± 0.5 | 5.3 ± 0.5 | 6.6 ± 0.6 | O=C(Nc1ccccc1)N1CCN(c2ccnc3cc(Cl)ccc23)CC1 [Compound 5, 4-(7-Chloro-quinolin-4-yl)-piperazine-1-carboxylic acid phenylamide] | much stronger activities against cancer than non-cancer cells | 14.1 ± 0.9 | 11.8 ± 1.4 | 4-8 fold
154 to 155 | 2.7 ± 0.1 | 15.3 ± 1.3 | 2 ± 0.1 | O=C(Nc1ccc(C(F)(F)F)cc1)N1CCN(c2ccnc3cc(C(F)(F)F)ccc23)CC1 [Compound 13, 4-(7-Trifluoromethyl-quinolin-4-yl)-piperazine-1-carboxylic acid (4-trifluoromethyl-phenyl)-amide] | higher activity against non-cancer cells than cancer cells | 1.1 ± 0.1 | 1 ± 0.1 | –
138 to 139 | 7.8 ± 0.8 | 9.6 ± 0.5 | 7.3 ± 0.5 | Cc1cccc(C)c1NC(=S)N1CCN(c2ccnc3cc(Cl)ccc23)CC1 [Compound 18, 4-(7-Chloro-quinolin-4-yl)-piperazine-1-carbothioic acid (2,6-dimethyl-phenyl)-amide] | much stronger activities against cancer than non-cancer cells | 16.7 ± 1 | 52.3 ± 2.9 | –
137 to 138 | 9.4 ± 0.8 | 9.8 ± 1 | 6.4 ± 0.7 | FC(F)(F)c1ccc2c(N3CCN(C(=S)Nc4cccc5ccccc45)CC3)ccnc2c1 [Compound 29, 4-(7-Trifluoromethyl-quinolin-4-yl)-piperazine-1-carbothioic acid naphthalen-1-ylamide] | much stronger activities against cancer than non-cancer cells | 50.6 ± 3.8 | 69.4 ± 3.7 | 4-8 fold

Reference: publication PMC6366420, “Design and synthesis of 4-piperazinyl quinoline derived urea/thioureas for anti-breast cancer activity by a hybrid pharmacophore approach” (Journal of Enzyme Inhibition and Medicinal Chemistry, 2019)
